Publication PMC6600542 (Molecules, 2019)
Values joined by “and” are separate entries in the source; they are usually repeats but may differ in a detail not shown here. Equal entries are not always repeated.

Key:
[1] = test system: human plasma deficient of FXII; assay: APTT clotting assay, FXII-deficient plasma; type: biochemical
Procedure: For the PT assay, thromboplastin-D was reconstituted according to the manufacturer’s directions and warmed to 37 °C. […] After incubation for 4 min at 37 °C, clotting was initiated by adding 100 μL of prewarmed 25 mM CaCl2 and the time to clotting was noted. […] To determine the in vitro effect on the APTT of deficient human plasmas, the APTT assay was repeated, using human plasmas deficient of factor VII (FVII), factor IX (FIX), FXI, or factor XII (FXII). […] The positive control used in APTT and PT assays was rivaroxaban, a clinically used FXa inhibitor. Under the conditions reported, rivaroxaban doubled the APTT and PT at concentrations of 0.123 ± 0.003 µM and 0.193 ± 0.043 µM, respectively.

human plasmin = human plasmin (Homo sapiens, UniProt P00747); assay: In vitro plasmin-mediated clot lysis (fibrinolysis) assay; type: biochemical; conditions: rate of clot lysis over 5–100 min, pH 7.4, 25 °C
human plasmin, sequence (P00747 581-810 limits assumed): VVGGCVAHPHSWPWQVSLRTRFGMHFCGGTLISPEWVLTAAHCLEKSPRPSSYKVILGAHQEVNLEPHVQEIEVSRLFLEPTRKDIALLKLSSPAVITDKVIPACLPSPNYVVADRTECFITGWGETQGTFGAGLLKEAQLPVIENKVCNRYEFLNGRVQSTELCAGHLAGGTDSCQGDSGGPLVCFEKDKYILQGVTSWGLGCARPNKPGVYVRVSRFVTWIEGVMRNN
human plasmin, sequence (P00747 97-580 partner limits assumed): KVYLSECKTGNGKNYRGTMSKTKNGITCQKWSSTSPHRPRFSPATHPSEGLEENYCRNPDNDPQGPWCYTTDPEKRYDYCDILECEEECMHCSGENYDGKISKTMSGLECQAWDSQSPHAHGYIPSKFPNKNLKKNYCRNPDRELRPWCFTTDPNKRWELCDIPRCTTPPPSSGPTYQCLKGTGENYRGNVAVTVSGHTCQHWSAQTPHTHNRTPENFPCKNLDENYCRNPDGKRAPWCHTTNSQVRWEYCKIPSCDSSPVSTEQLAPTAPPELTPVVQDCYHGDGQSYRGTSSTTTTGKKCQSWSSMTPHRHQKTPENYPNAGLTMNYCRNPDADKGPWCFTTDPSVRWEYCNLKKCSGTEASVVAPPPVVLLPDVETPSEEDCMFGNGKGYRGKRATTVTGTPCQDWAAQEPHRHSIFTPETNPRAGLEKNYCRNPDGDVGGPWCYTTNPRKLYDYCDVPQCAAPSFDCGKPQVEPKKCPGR
Procedure: The method followed here was similar to that reported earlier. This in vitro experiment was conducted in 96-well platform in pH 7.4 buffer at 25 °C. The clot was generated by the addition of 80 µL of a solution of human thrombin (2.5 µg/mL) in 20 mM TrisHCl buffer containing 10 mM CaCl2 to 60 µL of a solution of fibrinogen (10 mg/mL) and FXIIIa (2 µg/mL) in 20 mM TrisHCl buffer containing 10 mM CaCl2. The resulting clot was stabilized for 15 min at 25 °C. The absorbance was then measured at 405 nm and was ~0.98 across all wells. […] Finally, 5 µL of human plasmin (stock of 1.6 µM) in 20 mM TrisHCl buffer of pH 7.4 containing 2.5 mM CaCl2 and 100 mM NaCl was added to each well and the A405 of each well was recorded over more than 340 min at various time intervals. […] (1) Y=Y0+YM−Y0/1+10^(log[I]0−logIC50)(HS)

human FXIIIa = molecular target: T1, human FXIIIa (Homo sapiens, UniProt P00488); assay: FXIIIa fluorescence-based transglutamination assay; type: biochemical; conditions: pH 7.4, 37 °C
T1 construct: followed by the addition of 2 μL human FXIIIa (0.3 μM); purchased Haematologic Technologies, Inc
T1 sequence (P00488 39-732 limits assumed): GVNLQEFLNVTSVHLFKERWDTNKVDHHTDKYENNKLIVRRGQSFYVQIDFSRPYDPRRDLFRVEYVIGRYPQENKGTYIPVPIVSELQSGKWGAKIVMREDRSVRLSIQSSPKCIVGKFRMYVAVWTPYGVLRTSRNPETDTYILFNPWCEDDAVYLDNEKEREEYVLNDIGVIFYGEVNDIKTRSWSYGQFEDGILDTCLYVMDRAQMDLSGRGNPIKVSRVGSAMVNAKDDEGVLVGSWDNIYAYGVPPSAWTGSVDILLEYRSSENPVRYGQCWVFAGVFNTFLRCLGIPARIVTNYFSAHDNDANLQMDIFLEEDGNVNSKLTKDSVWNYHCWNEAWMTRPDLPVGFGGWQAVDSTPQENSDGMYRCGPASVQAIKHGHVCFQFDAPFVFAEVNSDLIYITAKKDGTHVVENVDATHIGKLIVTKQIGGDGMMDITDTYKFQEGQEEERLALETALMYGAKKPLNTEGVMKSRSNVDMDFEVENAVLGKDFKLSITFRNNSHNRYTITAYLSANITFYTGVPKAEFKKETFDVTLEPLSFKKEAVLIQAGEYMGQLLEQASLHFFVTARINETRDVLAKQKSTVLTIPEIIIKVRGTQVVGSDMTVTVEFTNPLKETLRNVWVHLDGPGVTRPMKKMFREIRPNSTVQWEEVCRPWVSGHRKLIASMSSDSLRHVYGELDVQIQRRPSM
Procedure: (§1) Direct inhibition of the human coagulation transglutaminase FXIIIa was also studied using a fluorescence-based transglutamination assay as reported in the literature.
The activity of FXIIIa was evaluated by the addition of 5 μL dansylcadaverine (2 mM) and measuring the initial rate of increase in fluorescence emission (λEx. = 360 nm and λEm. = 490 nm). In all assays, the dose dependence of the fractional residual enzyme activity, if any, was analyzed using Equation (1) above to obtain the apparent concentration of the test molecule required to reduce the enzyme activity to 50% of its initial value. All assays were performed three times.

bovine trypsin = molecular target: T2, bovine trypsin (Bos taurus, UniProt P00760); assay: Trypsin chromogenic substrate hydrolysis assay; type: biochemical; conditions: pH 7.4
T2 construct: purchased Millipore-Sigma
T2 sequence (P00760 24-246): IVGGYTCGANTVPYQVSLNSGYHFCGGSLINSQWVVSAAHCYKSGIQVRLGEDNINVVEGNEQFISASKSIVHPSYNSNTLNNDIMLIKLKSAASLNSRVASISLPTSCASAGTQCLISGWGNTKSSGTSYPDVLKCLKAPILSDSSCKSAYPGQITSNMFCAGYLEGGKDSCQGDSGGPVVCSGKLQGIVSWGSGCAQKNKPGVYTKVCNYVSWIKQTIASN
Procedure: as §1
After 10 min incubation, 5 µL FXIa substrate (6.9 mM stock concentration) was rapidly added and the residual FXIa activity was measured from the initial rate of increase in absorbance at 405 nm. Assays were performed in similar fashion with trypsin and chymotrypsin. Stock concentrations used were 18.9 µg/mL (trypsin) and 22.7 mM (S-2222) for bovine trypsin assay (final volume was 200 µL) and 2 µg/mL (chymotrypsin) and 16.2 mM (N-Succinyl-Ala-Ala-Pro-Phe-p-nitroanilide) for bovine chymotrypsin assay (final volume was 200 µL). The buffer used for FXIa, trypsin, chymotrypsin assays was 50 mM Tris-HCl buffer, pH 7.4, containing 150 mM NaCl, 2.5 mM CaCl2, 0.1% PEG8000, and 0.02% Tween80. Neutrophil elastase inhibition assay was performed in a 96-well plate with a final volume of 100 µl with 0.125 M 4-(2-hydroxyethyl)-1-piperazineethanesulfonic acid (HEPES) buffer, pH 7.4 containing 0.125% Triton-X 100, as reported earlier. […] After incubation, 3 µL neutrophil elastase substrate (S-1384; 25 mM stock conc.) was rapidly added and the residual enzyme activity measured from the initial rate of increase in the absorbance at 405 nm.

human FXa = human FXa (Homo sapiens, UniProt P00742); assay: Michaelis-Menten kinetics of Spectrozyme FXa hydrolysis by FXa; type: biochemical; conditions: for Km / VMAX of Spectrozyme FXa hydrolysis: pH 7.4, 37 °C
human FXa, sequence (P00742 235-488 limits assumed): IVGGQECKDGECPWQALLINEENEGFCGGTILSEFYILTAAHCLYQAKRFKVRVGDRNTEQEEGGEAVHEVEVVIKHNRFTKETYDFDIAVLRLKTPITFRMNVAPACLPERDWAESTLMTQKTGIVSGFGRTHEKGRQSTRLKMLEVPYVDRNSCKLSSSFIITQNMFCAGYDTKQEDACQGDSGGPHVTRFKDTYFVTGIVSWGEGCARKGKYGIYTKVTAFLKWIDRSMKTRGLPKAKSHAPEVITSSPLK
human FXa, sequence (P00742 41-179 partner limits assumed): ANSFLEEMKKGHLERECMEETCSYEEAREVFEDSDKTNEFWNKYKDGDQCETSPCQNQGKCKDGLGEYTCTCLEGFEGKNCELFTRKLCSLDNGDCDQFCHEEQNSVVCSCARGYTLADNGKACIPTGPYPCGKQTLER
Procedure: The initial rate of Spectrozyme FXa hydrolysis by human FXa (87 nM) or that of Spectrozyme PL hydrolysis by human plasmin (120 nM) was monitored from the linear increase in absorbance at 405 nm corresponding to less than 10% consumption of the substrate. […] The data were fitted by Michaelis-Menten Equation (2) to determine KM (substrate affinity to the enzyme) and VMAX (maximum velocity of enzyme reaction). (2) Vi=VMAX×[S]/KM+[S]

clotting times = conditions: cited from earlier work

## N=C(N)c1ccc(OCCCCCOc2ccc(C(=N)N)cc2)cc1 [pentamidine isethionate, 4,4′-(pentane-1,5-diylbis(oxy))-dibenzimidamide]
[1]
  APTTEC2×, concentration to double clotting time: 27.05 ± 6.05 µm
Human plasmin
  HS (Hill slope) of clot lysis inhibition: 1.2 ± 0.7
  efficacy (ΔY) of clot lysis inhibition: ~ 58%
Human plasmin; read-out: IC50 of fibrinolysis (clot lysis) inhibition
  IC50: ~3.6 µM and 3.6 µM
Human FXIIIa
  IC50: > 50 µM
Bovine trypsin
  HS: 1.0 ± 0.2
  IC50: 4.9 ± 0.8 µM
  ∆Y (efficacy): 116.8 ± 7.4%
Human FXa; 5 µM pentamidine isethionate
  Km: 267 ± 21.2 µM
  VMAX of Spectrozyme FXa hydrolysis: 114.3 ± 4.7 mAU/min
Human FXa; 10 µM pentamidine isethionate
  Km: 410 ± 18.2 µM
  VMAX of Spectrozyme FXa hydrolysis: 124.2 ± 3.3 mAU/min
Human FXa; 20 µM pentamidine isethionate
  Km: 364 ± 36.6 µM
  VMAX of Spectrozyme FXa hydrolysis: 63.1 ± 3.6 mAU/min
Human FXa; 50 µM pentamidine isethionate
  Km: 690 ± 63.1 µM
  VMAX of Spectrozyme FXa hydrolysis: 60.3 ± 3.8 mAU/min
Human FXa; inhibitor 50 μM vs absence
  decrease of VMAX of Spectrozyme FXa hydrolysis: ~ 2.8 fold
  increase of KM for Spectrozyme FXa: ~ 2.3 fold
Clotting times
  concentration that prolongs clotting times: greater than 8.4 µM
